Test results: patent US20230050846A1, “TREATMENT OF HEPATIC AND CARDIOVASCULAR DISORDERS” (LIFESEARCH, priority 2019, published 2023)
Where two headings read alike, the source gives them in different places. Peptide text beside a SMILES is read from it. * marks the point of attachment. Palmitoyl = CCCCCCCCCCCCCCCC(=O)*

Experiments:
[1] = Stability in plasma and serum (LC-HRMS); format: in vitro ADME, human and mouse; conditions: 37° C.
Description: Peptide of Formula (I) or peptide of Formula (II) were prepared at a concentration of 200 μg/mL in PBS or mixed with EDTA plasma or serum from human (Etablissement Frangais du Sang, EFS) or mouse (C57BL/6J, cardiac puncture). Aliquots from PBS samples (40 μL) were incubated at 4° C. or 37° C. for 0, 1, 2 and 4 weeks. Aliquots from plasma and serum samples (50 μL) were incubated at 4° C. or 37° C. for 0, 1, 2, 4, 6, 12, 24 h.
A mixed solution of peptides of formula (I) and (II) was constituted and serially diluted in PBS to obtain seven standard solutions, ranging from 200 μg/mL to 0.2 μg/mL. In parallel, a mixed solution of labelled peptides of Formula (I) and (II) (Thermo Scientific, Biopolymers Darmstadt, Germany) was prepared in PBS at 100 μg/mL. The mixed solution of labelled peptides (25 μL) was added to 25 μL of standard solutions as well as to PBS, plasma and serum samples. Acetonitrile (150 μL) was added to each sample to precipitate plasma/serum proteins. After centrifugation (10,000×g, 4° C., 10 min), the clear supernatants (150 μL) were dried under a gentle stream of nitrogen (45° C.), reconstituted with 10% acetonitrile containing 0.1% formic acid (100 μL), and injected into the liquid chromatography-high-resolution mass spectrometry (LC-HRMS) system. LC-HRMS analyses were performed on an H-Class UPLC system (Waters Corporation, Milford, Mass., USA) by injection of 10 μL of samples onto an Acquity® Peptide CSH C18 column (2.1 mm×150 mm, 1.7 μm; Waters Corporation) held at 60° C. The mobile phase was composed of 5% acetonitrile as solvent A and 100% acetonitrile as solvent B, each containing 0.1% formic acid. The elution was carried out using a gradient of solvent B in solvent A over 20 min at a constant flow rate of 250 μL/min. […] HRMS detection was performed by a Synapt G2 HRMS Q-TOF mass spectrometer equipped with a Z-Spray interface for electrospray ionization (Waters Corporation). The resolution mode was applied in a mass-to-charge (m/z) ratio ranging from 200 to 4,000 at a mass resolution of 25,000 Full Width Half Maximum in the positive ionization mode. Ionization parameters were as follow: capillary voltage of 3 kV, cone voltage of 30 V, desolvatation gas flow of 900 L/hr, source temperature of 120° C., desolvatation temperature of 450° C., Nitrogen as desolvatation gas. Data were collected in the continuum mode at a rate of four spectra per second. […] Peptides were analyzed according to their major exact m/z (i 5 ppm, Table 1) and each peptide signal was normalized with that of its labelled internal standard. Peptide concentrations were calculated using calibration curves plotted from standard solutions (linear regression, 1/x weighted, origin excluded).

[2] = test system: LDLR knock-out mice; assay: Biliary lipid secretions, gallbladder cannulation, dyslipidemic LDLR KO mice; format: in vivo, mouse; conditions: dyslipidemic LDL KO mice, ip 25 mg/kg, 2 h
Description: Wild-type C57B/L6J male mice were purchased from Janvier Labs (Le Genest Saint Isle, France). LDLR knock-out mice (males, C57B/L6J background) were obtained from The Jackson Laboratory (Bar Harbor, Me., USA). Mice were caged in animal rooms under specific pathogen free conditions at the animal facility of Rangueil (Anexplo platform, US006, Toulouse, France) with a light/dark schedule of 12 h/12 h and were fed ad libitum with a normal chow diet (#V1535 R/M-H, Ssniff, Germany). […]
Depending of experiments, 8 weeks old mice were intraperitoneally injected with PBS, the peptide of formula (I), the peptide of formula (II) and SCR. […] Bile flow (expressed in μL/min/100 g of body weight) was determined gravimetrically assuming a density of 1 g/mL for bile. […]
For bile acid analysis, 1 μL of bile samples was diluted with 99 μL of milliQ water then incubated with the work reagent (6 mg NAD, 0.5 M hydrazine hydrate buffer, 0.05 M Na-pyrophosphate) for 4 min. The mix was then incubated with a start reagent (0.03 M Tris-EDTA; 0.3 U/mL 3-alpha-OH steroid dehydrogenase) and measured for 30 min, under excitation of 340/330 nm and emission of 440/420 nm. […] The mix was then incubated with a start reagent (1 M MOPS, pH 8, 50 U/mL Choline oxidase) and measured for 67.5 min, under excitation of 340/330 and emission of 440/40. […]

[3] = EDTA plasma, read-out: recovery of the peptide in plasma
[4] = serum, read-out: recovery of the peptide in serum

Row | Compound | recovery at 24 h, 200 μg/mL [1, 3] [%] | recovery at 24 h, 200 μg/mL [1, 4] [%] | stimulation of biliary flux and biliary lipid secretion [2]
1 | CCCCCCCCCCCCCCCC(=O)NCCCC[C@H](NC(=O)[C@H](CCC(=O)O)NC(=O)[C@H](CCCNC(=N)N)NC(=O)[C@H](CO)NC(=O)[C@H](CCC(N)=O)NC(=O)[C@H](C)NC(=O)[C@H](CCCNC(=N)N)NC(=O)[C@H](Cc1ccccc1)NC(=O)[C@H](Cc1ccc(O)cc1)NC(=O)[C@H](CCCNC(=N)N)NC(=O)[C@H](CCC(=O)O)NC(=O)[C@H](CCC(=O)O)NC(=O)[C@H](CCC(=O)O)NC(=O)[C@H](C)NC(=O)[C@H](CCC(N)=O)NC(=O)[C@H](CCC(=O)O)NC(=O)[C@H](CCCNC(=N)N)NC(=O)[C@H](CCCCN)NC(=O)CNC(=O)[C@H](Cc1ccccc1)NC(=O)[C@H](C)NC(=O)CNC(=O)CNC(=O)[C@H](C)NC(=O)[C@H](CCC(=O)O)NC(=O)[C@H](CCCNC(=N)N)NC(=O)[C@@H](NC(=O)[C@H](CO)NC(=O)CNC(=O)[C@H](C)NC(=O)CNC(=O)[C@H](CCCNC(=N)N)NC(C)=O)[C@@H](C)CC)C(N)=O [peptide of formula (II), CH3CO-[SEQ ID NO: 1]-K-[palmitoyl]-NH2] (Ac-RGAGSIREAGGAFGKREQAEEERYFRAQSREK(Palmitoyl)-NH2) | 50 | 100 | maintained
2 | Ac-RGAGSIREAGGAFGKREQAEEERYFRAQSRE-NH2 [peptide of formula (I), CH3CO-[SEQ ID NO: 1]-NH2] | 10 | 30 | maintained
